Consider 4 compounds from paper PMC12598866, “A Comparative Study of Virucidal and Virustatic Multivalent Entry Inhibitors” (The Journal of Physical Chemistry. B, 2025).

The term CC50 denotes the concentration that lowers cell viability or growth by half. In general, IC99 refers to the concentration needed for an effect of 99%. A word on the IC50: it is the concentration that inhibits the measured activity by half.

Series [1] is described as follows: Cytotoxicity assay on Vero cells (MTS). In kind it is cell-based. Particulars: African green monkey. The protocol: Cytotoxicity assay was performed on the Vero cell line with the MTS assay. The cells were plated for 24 h in DMEM medium containing 10% FBS and 1% penicillin/streptomycin with a seeding density of 2 × 10^4 per well in a 96-well plate. […] Then, the cells were washed with PBS twice, followed by the addition of 20 μL MTS reagents together with 80 μL DMEM medium. They were then incubated at 37 °C for 4 h. The cell viability was checked by absorbance at 490 nm with a plate reader.

Series [2] has as its system HSV-2. The experiment in a line: HSV-2 inhibition assay (plaque reduction on Vero cells, pretreatment). In kind it is cell-based, herpes simplex virus type 2. As to conditions: for IC50: Human alphaherpesvirus 2, Vero, dose–response, Vero cells. As to the method:
The inhibitory effect of compounds on HSV-2 was evaluated by plaque reduction assay. Vero cells were plated 24 h before the experiment in 24-well plates with a seeding density of 10^5 cells/well. Serial dilutions of compounds in DMEM medium (2% FBS, 1% P/S) were prepared, followed by the addition of aliquots of HSV-2 such that the final titer of the virus was 200 pfu/mL (with MOI = 0.0005). Compounds/virus mixtures were incubated at 37 °C for 1 h and added to the cells (250 μL/well). Followed by incubation at 37 °C for 1 h, the viral inoculum was removed. The cells were overlaid with DMEM medium containing 1.2% methylcellulose, 2% FBS, and 1% P/S. After 48 h of incubation at 37 °C, 5% CO2, the cells were fixed and stained with 0.1% crystal violet in 20% ethanol. Finally, the plaques were counted. Each group of experiments in the inhibition assay was performed in triplicate. The concentration producing a 50% reduction in plaque formation was determined using Prism 10 software (GraphPad Software, USA) by comparing compound-treated and untreated cells. Infectivity was calculated as the number of plaques in compound-treated cells/number of plaques in untreated cells × 100%.

Series [3] concerns HSV-2. Set-up: method as in Zhu et al., 2024 (citation number not given). Particulars: earlier paper of the authors; ref Zhu et al., 2024 (citation number not given); cited from earlier work.
The next series deals with H1N1N09. The series is described as follows: Influenza virucidal assay. In kind it is cell-based, Influenza A/Netherlands/602/2009 (H1N1).
Series [4] has as its system HSV-2. Set-up: method as in Zhu et al., 2024 (citation number not given). Particulars: earlier paper of the authors on benzene-core MEIs; ref Zhu et al., 2024 (citation number not given); read-out: IC50 against HSV-2; cited from earlier work.
Setting [5] is: HSV-2 inhibition, concentration intended to inhibit infection by at least 90 and 99%.

Where two headings read alike, the source gives them in different places. Where only a bound is given, the exact number is not on record here.

For the compound `O=S(=O)(O)CCCCCCCCCCCSCc1cc2c(cc1CSCCCCCCCCCCCS(=O)(=O)O)OCCOCCOc1cc(CSCCCCCCCCCCCS(=O)(=O)O)c(CSCCCCCCCCCCCS(=O)(=O)O)cc1OCCOCCO2` [C4C11SO3], the CC50 at 48 h in series [1] is more than 358 µM. Besides, the IC99 with HSV-2 [2] (setting [5]) was 408 ± 1.5 µM. Besides, the IC50 in the series with HSV-2 [2] turned out to be 18.5 ± 5.2 µM.

As for `O=S(=O)(O)CCCCCCCCCCCSCc1cc(CSCCCCCCCCCCCS(=O)(=O)O)cc(CSCCCCCCCCCCCS(=O)(=O)O)c1` [B3C11SO3], the “Virucidal activity, H3N2” value in the series with H3N2 is listed as “S”. In addition, the “Virucidal activity, FluB” value in the series with FluB is reported as “S”. The CC50 at 48 h in series [1] was more than 546 µM. In the series with HSV-2 [2], the IC99 worked out at 1092 ± 7.6 µM and the IC50 stood at 88.5 ± 7.6 µM. For the same compound, the “Virucidal activity, V-1” value with HSV-1 is on record as “S”. Besides, the “Virucidal activity, H1N1 clinical” value in the series with H1N1 clinical is on record as “S”. In the series with HSV-2 [3], the “inhibition mechanism with HSV-2” value is “virustatic”. The “Virucidal activity, H1N1N09” value with H1N1N09 was “S”.

The compound `O=S(=O)(O)OCCCCCCCCCCCSCc1cc2c(cc1CSCCCCCCCCCCCOS(=O)(=O)O)OCCOCCOc1cc(CSCCCCCCCCCCCOS(=O)(=O)O)c(CSCCCCCCCCCCCOS(=O)(=O)O)cc1OCCOCCO2` [C4C11SO4] yielded a CC50 at 48 h in series [1] of more than 657 µM. In addition, the IC99 in the series with HSV-2 [2] (setting [5]) turned out to be 67.47 ± 5.2 µM. Further, in the series on HSV-2 [2], the IC50 was 9.8 ± 1.5 µM.

`O=S(=O)(O)OCCCCCCCCCCCSCc1cc(CSCCCCCCCCCCCOS(=O)(=O)O)cc(CSCCCCCCCCCCCOS(=O)(=O)O)c1` [B3C11SO4] yielded a CC50 at 48 h in series [1] of 313 ± 28.7 µM. Also, the IC99 in the series with HSV-2 [2] (setting [5]) was 103.8 ± 8.3 µM. Also, the figures for the IC50 in the series on HSV-2 [2] and in the series on HSV-2 [4] were 43 ± 8.3 µM and 26.2 µM, respectively. Besides, the “inhibition mechanism with HSV-2” value in the series on HSV-2 [3] is “virucidal”.
